Measurements as given in patent US20240199572A1, “COMPOUNDS, COMPOSITIONS, AND METHODS FOR TREATING TYPE 2 DIABETES AND DEMENTIA” (THE BOARD OF TRUSTEES OF THE UNIVERSITY OF ILLINOIS, priority 2021, published 2024).

Tests used:
ABCA1 [1] = test: ABCA1-linked luciferase assay in HepG2 cells; assay type: cell-based
Description: Luciferase. HepG2 cells (RRID:CVCL 0027) purchased from ATCC and used without further validation were stably transfected with pGreenFire1-LXRE-in-ABCA1 plasmid, which contains the ABCA1 promoter sequence linked to a luciferase response element, then selected over multiple generations with puromycin and frozen in liquid N2. For assays, transfected cells were plated 24 hours in medium (Gibco) containing charcoal-stripped serum (Gemini), followed by a 24-hour treatment. Cells were lysed with passive lysis buffer (Promega), frozen at −80° C. for 15 minutes, and shaken at room temperature for 2 hours before quantification with luciferase assay system (Promega) on a Synergy Neo2 plate reader.

LXRβ [2] = target: T1, LXRβ (Homo sapiens, UniProt P55055); test: LanthaScreen TR-FRET coactivator assay LXRβ; assay type: biochemical; details: read-out: EC50, LXRβ agonism, coactivator recruitment via TR-FRET
T1 construct: purchased Thermo Fisher Scientific
T1 sequence (P55055 212-460 limits assumed): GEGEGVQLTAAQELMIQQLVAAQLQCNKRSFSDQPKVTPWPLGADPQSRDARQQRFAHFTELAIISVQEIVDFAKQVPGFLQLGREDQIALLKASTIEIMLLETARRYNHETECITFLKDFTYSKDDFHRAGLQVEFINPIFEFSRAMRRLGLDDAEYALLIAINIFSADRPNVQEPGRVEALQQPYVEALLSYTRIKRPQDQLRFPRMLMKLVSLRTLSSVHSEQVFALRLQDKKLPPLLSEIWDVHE
Description: TR-FRET Receptor Binding Assays. LanthaScreen” TR-FRET coactivator assay kits for LXRβ (Thermo Fisher Scientific) and PPARγ (Thermo Fisher Scientific) were performed according to manufacturer instructions using low-binding black 384-well plates and Synergy Neo2 plate reader. […] Each compound dose was performed in quadruplicate on each plate, and each experiment was performed in triplicate.

ABCA1 [3] = test: ABCA1 firefly reporter assay in CCF-001 cells; assay type: cell-based; details: ABCA1 firefly reporter assay in CCF-001 cells (Table 8)
LXRβ [4] = target: T2, LXRβ (Homo sapiens, UniProt P55055); test: LXRβ NHR screen (DiscoverX NHR-Scan, β-gal reporter); assay type: cell-based
T2 sequence (P55055 1-460): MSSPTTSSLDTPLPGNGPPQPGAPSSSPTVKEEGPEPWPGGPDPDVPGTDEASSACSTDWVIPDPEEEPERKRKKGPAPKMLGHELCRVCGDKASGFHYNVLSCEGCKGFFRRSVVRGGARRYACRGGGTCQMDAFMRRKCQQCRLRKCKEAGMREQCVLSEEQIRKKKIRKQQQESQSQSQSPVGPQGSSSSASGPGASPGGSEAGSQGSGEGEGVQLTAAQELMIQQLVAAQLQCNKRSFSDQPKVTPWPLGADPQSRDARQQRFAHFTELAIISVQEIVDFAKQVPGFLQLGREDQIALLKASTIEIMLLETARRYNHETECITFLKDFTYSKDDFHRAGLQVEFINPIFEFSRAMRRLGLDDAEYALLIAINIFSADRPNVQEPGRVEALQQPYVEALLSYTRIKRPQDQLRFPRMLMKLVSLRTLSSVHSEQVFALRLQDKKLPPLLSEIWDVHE
Description: Receptor Binding Assays. Nuclear hormone (NHR) assays were performed by DiscoverX (Fremont, CA) on their NHR-Scan platform of cell-based protein-protein interaction assays. This platform uses a […] reporter that activates upon interaction of full-length receptor protein with steroid coactivator receptor peptides. In agonist mode, activity of CL2-57 at 10 μM was compared to maximal activity of published positive control agonists; in antagonist mode, reduction in activity with 10 μM CL2-57 from that observed at […] of published agonists was quantified.

SMILES: CCOC(=O)c1cccc(NC(=O)c2sc(Cl)cc2S(=O)(=O)N(C)c2ccc(OCC)c(OCC)c2)c1 [CL2-57, ethyl 3-(5-chloro-3-(N-(3,4-diethoxyphenyl)-N-methylsulfamoyl)thiophene-2-carboxamido) benzoate]
- ABCA1 luciferase, activity of CL2-57 (10 μM) as % of T0901317 (1 μM) (ABCA1 [1]; 10 μM): 127%
- Emax, ABCA1-linked luciferase activity (ABCA1 [1]; HepG2 liver cells): 250 % of vehicle
- EC50 (ABCA1 [1]; Homo sapiens, HepG2 liver cells, read-out: EC50, ABCA1-linked luciferase activity): 1800 nM
- ABCA1-linked luminescence with CL2-57 titration (ABCA1 [1]; in the presence of RXR agonist bexarotene, increased from 2.5-fold): 4.5 fold
- ABCA1-linked luminescence with CL2-57 titration (ABCA1 [1]; in the presence of pan-LXR agonist T0901317): no increase
- EC50 (LXRβ [2]): 1300 nM
- EC50 (ABCA1 [3]): 817 nM
- LXRβ NHR screen, activity of CL2-57 (10 μM) as % of T0901317 (1 μM) (LXRβ [4]; 10 μM): 75%
- LXR β/α selectivity by Emax (LXRβ [4]; cell-based β-gal reporter assays): 2.5 fold
- Functional mode at LXR (LXRβ [4]; cell-based β-gal reporter assays, 10 μM): partial LXR agonist
